{
  "source": "patent US20220389465A1",
  "about": "“METHODS OF REDUCING BIURET IN UREA COMPOSITIONS” (Regents of the University of Minnesota, priority 2019, published 2022)",
  "key": {"[1]": {"system": "cyanuric acid hydrolase", "conditions": "no turnover observed; cited from earlier work"}, "[2]": {"system": "triuret hydrolase"}, "[3]": {"target": "T1, biuret hydrolase (Rhizobium johnstonii, UniProt Q1M7F4)", "T1 construct": "six-histidine tag (C); made in house; host or cells: Escherichia coli BL21(DE3)", "T1 sequence (Q1M7F4 whole entry)": "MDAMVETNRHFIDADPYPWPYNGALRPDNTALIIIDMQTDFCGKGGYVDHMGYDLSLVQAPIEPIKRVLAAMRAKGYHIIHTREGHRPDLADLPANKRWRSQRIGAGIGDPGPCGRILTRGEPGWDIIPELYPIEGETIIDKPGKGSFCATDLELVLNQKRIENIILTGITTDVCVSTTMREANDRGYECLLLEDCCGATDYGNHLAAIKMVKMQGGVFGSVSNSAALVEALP", "experiment": "Inhibition of biuret hydrolase by urea, kinetic constants", "type": "biochemical"}, "[4]": {"target": "T2, triuret hydrolase (TrtA) from Herbaspirillum sp. BH-1 (Herbaspirillum sp. BH-1, UniProt A0A2N6JFX7)", "T2 sequence (A0A2N6JFX7 1-227)": "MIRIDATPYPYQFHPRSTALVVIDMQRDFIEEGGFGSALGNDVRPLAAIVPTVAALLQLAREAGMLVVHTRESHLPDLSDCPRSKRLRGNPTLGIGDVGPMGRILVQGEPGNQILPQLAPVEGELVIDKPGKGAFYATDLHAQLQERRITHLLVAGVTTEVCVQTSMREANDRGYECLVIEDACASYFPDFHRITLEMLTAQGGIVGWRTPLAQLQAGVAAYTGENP", "experiment": "Kinetic constants of triuret hydrolase (Km for triuret, inhibition by urea, FIG. 16B)", "type": "biochemical", "conditions": "urea concentrations up to 50 mM"}, "[5]": {"system": "native biuret hydrolase (BiuH) from Herbaspirillum sp. BH-1, six-histidine tag", "experiment": "BiuH activity in the presence of urea (Berthelot ammonia assay, FIGS. 4, 5A-5B)", "type": "biochemical", "description": "FIG. 4. Evaluation of urea inhibition of biuret hydrolase and various urea concentrations. Biuret was added at 0.8 mM concentration and 30 microgram enzyme per ml incubated for 30 minutes.\n(§1) Analytical methods: The colorimetric Berthelot ammonia assay was used to measure residual ammonium (NH4^+) present in the urea and to detect NH4^+ released from the residual biuret in urea by addition of biuret hydrolase (BiuH) enzyme. The assay was conducted by adding 0.100 ml of sample directly to 0.300 ml of solution A (10 g/L phenol and 0.050 g/L sodium nitroprusside), followed by addition of 0.400 ml of solution B (5 g/L sodium hydroxide and 8.25 ml/L of commercial chlorine bleach or 5.25% sodium hypochlorite). The reactions were pulsed on a vortex mixer, incubated at 37° C. for 60 min, and then absorbance at 630 nm was read with a Beckman-Coulter DU-640 spectrophotometer. Quantification of NH4^+ was done via a standard curve prepared from ammonium chloride (NH4Cl) (Sigma-Aldrich, St. Louis, Mo.) standards at 5-1000 μM in deionized reverse osmosis (DI/RO) water that were analyzed with the Berthelot reaction.\nEnzyme purification: A synthetic gene encoding the native biuret hydrolase from Herbaspirillum sp. BH-1 was expressed with a C- or N-terminal six-histidine tag from an isopropyl-β-D-thiogalactoside (IPTG)-inducible promoter T7 promoter on a plasmid in Eschrichia coli BL2(DE3). Cells were harvested by centrifugation and lysed with a French pressure cell (two passages at 124 MPa) in a buffer of 20 mM sodium phosphate (pH 7.4), 500 mM sodium chloride, 10 mM imidazole, and 10 mM 2-mercaptoethanol. The resulting crude lysate was centrifuged at 19,000×g for 60 min and the supernatant was passed through a […] filter. An AKTA FPLC system (GE Healthcare, Chicago, Ill.) was used to inject the filtrate (cleared crude lysate) onto a HisTrap affinity column (GE Healthcare) charged with Ni^2+ ions. Bound BiuH was eluted from the column with a linear gradient of 20-250 mM imidazole in the same buffer. […] Total protein concentration was determined with the BioRad (Hercules, Calif.) Bradford protein assay reagent and BiuH purity was verified by SDS-PAGE. […]\nBiuH activity in the presence of urea: Biuret degradation reactions were performed by adding 10-20 μg purified BiuH to 0.5 ml of urea standards (0.5-8 M) in DI/RO water in 1.7 ml microcentrifuge tubes. […] Total ammonium (NH4^+) was quantified with the Berthelot assay. Residual biuret present in urea was determined by treating unspiked urea standards with BiuH and subtracting the amount of residual NH4^+ detected above. […] Net NH4^+ released from the spiked biuret by BiuH was calculated by subtracting the amounts of residual biuret and NH4^+ detected in the control treatments. […]"}, "[6]": {"system": "biuret hydrolase", "experiment": "BiuH activity in the presence of urea (Berthelot ammonia assay)", "type": "biochemical, Herbaspirillum sp. BH-1", "description": "as §1\nBiuH activity in the presence of urea: Biuret degradation reactions were performed by adding 10-20 μg purified BiuH to 0.5 ml of urea standards (0.5-8 M) in DI/RO water in 1.7 ml microcentrifuge tubes. […] Total ammonium (NH4^+) was quantified with the Berthelot assay. Residual biuret present in urea was determined by treating unspiked urea standards with BiuH and subtracting the amount of residual NH4^+ detected above. […]"}},
  "data": [
    {"compound": "O=C1CC(=O)NC(=O)N1", "note": "[barbituric acid]", "values": [
      {"measurement": "effect on cyanuric acid hydrolase", "setting": "[1]", "result": "inhibitor"}
    ]},
    {"compound": "NC(=O)NC(=O)NC(N)=O", "note": "[triuret]", "values": [
      {"measurement": "Km", "setting": "[2]; read-out: Km for triuret", "result": "20 to 21", "unit": "µM"}
    ]},
    {"compound": "NC(N)=O", "note": "[urea]", "values": [
      {"measurement": "Ki", "setting": "[3]", "result": 34, "unit": "mM"},
      {"measurement": "inhibition by urea", "setting": "[4]", "result": "no inhibition was measurable"},
      {"measurement": "inhibition by urea", "setting": "[5]; 4M urea, residual biuret in Fluka urea", "result": "slight inhibition"},
      {"measurement": "inhibition by urea", "setting": "[5]; 10,000 fold higher concentration of urea than biuret", "result": "not inhibited"},
      {"measurement": "inhibition by urea", "setting": "[5]; urea concentrations higher than 4M (up to 8.0 M), residual biuret in Fluka urea", "result": "stronger inhibition"},
      {"measurement": "inhibition by urea", "setting": "[5]; urea up to 0.5M, 0.8 mM biuret, 30 microgram enzyme per ml, 30 minutes", "result": "not inhibited"},
      {"measurement": "inhibition of biuret hydrolase by urea", "setting": "[6]; 4M urea, NH4+ released from residual biuret in 0.5-8.0 M Fluka urea", "result": "slight inhibition"},
      {"measurement": "inhibition of biuret hydrolase by urea", "setting": "[6]; urea up to 0.5M, biuret 0.8 mM, 30 microgram enzyme per ml, 30 minutes", "result": "not inhibited"},
      {"measurement": "inhibition of triuret hydrolase by urea", "setting": "[2]; urea concentrations up to 50 mM", "result": "no inhibition"}
    ]}
  ]
}
